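Grown in 96-well plates, cells were treated for 48 hours with each compound at five concentrations. Insufficient inhibition: endpoint recorded as highest concentration tested. GI50 is the concentration that inhibits growth by half.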 Active and inactive are the calls of the source. Rule as the data show it: active = GI50 up to about 1.1 µM and inactive = higher.
Tests used:
Assay in all cases: DTP human tumour cell line panel, 48 h
[1] = tested on: KM12
[2] = tested on: XF498
[3] = tested on: BT-549
[4] = tested on: HOP-92
[5] = tested on: Hs-578T
[6] = tested on: A498
[7] = tested on: MDA-MB-231
[8] = tested on: RXF 631

| Structure (SMILES) | GI50 [1] | GI50 [4] | GI50 [5] | GI50 [7] | also measured |
| --- | --- | --- | --- | --- | --- |
| NNc1nnc(-c2ccccc2)nc1Cc1ccccc1 | 8.3 µM (inactive) | – | – | – | GI50 [2]: 7.41 µM (inactive) |
| COC(=O)C1C(C(=O)OC)N(Cc2ccccc2)C(=O)N1Cc1ccccc1 (configuration not stated) | > 100 µM (inactive) | > 100 µM (inactive) | > 100 µM (inactive) | – | GI50 [3]: > 100 µM (inactive) |
| Cc1nc2[nH]ncn2c(=O)c1CCCl | – | – | > 10 µM (inactive) | > 10 µM (inactive) | GI50 [6]: > 10 µM (inactive) |
| CCC(C(=O)c1ccc(OC)c(OC)c1)N(C(=O)C(F)(F)F)C(C)c1ccccc1 (configuration not stated) | – | – | – | > 100 µM (inactive) | – |
| CC(=O)OC1(C#N)CC2OC1C1C2N=NN1C(=O)OC(C)(C)C (configuration not stated) | – | 27.5 µM (inactive) | – | – | GI50 [8]: 50.6 µM (inactive) |
